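Five concentrations, 48 hours, 96-well plates. TGI: concentration producing complete growth inhibition.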
Experiments:
Experiment in all cases: NCI-60 cell line screen, 48 h
HCC-2998 colon = tested on: HCC-2998 colon
OVCAR-4 ovarian = tested on: OVCAR-4 ovarian
MALME-3M melanoma = tested on: MALME-3M melanoma
HOP-92 NSCLC = tested on: HOP-92 NSCLC
SF-268 CNS = tested on: SF-268 CNS
RXF 393 renal = tested on: RXF 393 renal
LOX IMVI melanoma = tested on: LOX IMVI melanoma
HL-60(TB) leukemia = tested on: HL-60(TB) leukemia
UACC-257 melanoma = tested on: UACC-257 melanoma
UO-31 renal = tested on: UO-31 renal
T-47D breast = tested on: T-47D breast
M14 melanoma = tested on: M14 melanoma
SW-620 colon = tested on: SW-620 colon
A549 NSCLC = tested on: A549 NSCLC
HCT-116 colon = tested on: HCT-116 colon
SK-MEL-5 melanoma = tested on: SK-MEL-5 melanoma
NCI-H23 lung = tested on: NCI-H23 lung
786-0 renal = tested on: 786-0 renal
PC-3 prostate = tested on: PC-3 prostate
HT29 colon = tested on: HT29 colon
MOLT-4 leukemia = tested on: MOLT-4 leukemia
NCI-H460 lung = tested on: NCI-H460 lung
MCF7 breast = tested on: MCF7 breast
COLO 205 colon = tested on: COLO 205 colon
HCT-15 colon = tested on: HCT-15 colon
SK-OV-3 ovarian = tested on: SK-OV-3 ovarian
SNB-19 CNS = tested on: SNB-19 CNS
CCRF-CEM leukemia = tested on: CCRF-CEM leukemia
SK-MEL-28 melanoma = tested on: SK-MEL-28 melanoma
MDA-MB-231 breast = tested on: MDA-MB-231 breast
DU-145 prostate = tested on: DU-145 prostate
BT-549 breast = tested on: BT-549 breast
HOP-62 NSCLC = tested on: HOP-62 NSCLC
MDA-N = tested on: MDA-N
NCI-H522 lung = tested on: NCI-H522 lung
HS 578T breast = tested on: HS 578T breast
OVCAR-3 ovarian = tested on: OVCAR-3 ovarian
K-562 leukemia = tested on: K-562 leukemia
RPMI-8226 leukemia = tested on: RPMI-8226 leukemia
SN12C renal = tested on: SN12C renal
NCI/ADR-RES ovarian = tested on: NCI/ADR-RES ovarian
SNB-75 CNS = tested on: SNB-75 CNS
IGROV1 ovarian = tested on: IGROV1 ovarian
MDA-MB-435 = tested on: MDA-MB-435
TK-10 renal = tested on: TK-10 renal
U251 CNS = tested on: U251 CNS
OVCAR-5 ovarian = tested on: OVCAR-5 ovarian
SK-MEL-2 melanoma = tested on: SK-MEL-2 melanoma
OVCAR-8 ovarian = tested on: OVCAR-8 ovarian
UACC-62 melanoma = tested on: UACC-62 melanoma
ACHN renal = tested on: ACHN renal
KM12 colon = tested on: KM12 colon
EKVX NSCLC = tested on: EKVX NSCLC
NCI-H226 lung = tested on: NCI-H226 lung
SF-539 CNS = tested on: SF-539 CNS
CAKI-1 renal = tested on: CAKI-1 renal
A498 renal = tested on: A498 renal
SR leukemia = tested on: SR leukemia
LXFL 529 NSCLC = tested on: LXFL 529 NSCLC
DMS 114 small cell lung = tested on: DMS 114 small cell lung
DLD-1 colon = tested on: DLD-1 colon
DMS 273 small cell lung = tested on: DMS 273 small cell lung
SF-295 CNS = tested on: SF-295 CNS
M19-MEL melanoma = tested on: M19-MEL melanoma
SNB-78 CNS = tested on: SNB-78 CNS
XF 498 CNS = tested on: XF 498 CNS

For Clc1ccc(C2NN=C3c4ccccc4OCC32)cc1 (centres undefined), the TGI (HCC-2998 colon) was 13.5 µM, the TGI (OVCAR-4 ovarian) was greater than 73.1 µM and the TGI (MALME-3M melanoma) was 23.1 µM. For the same molecule, the TGI (HOP-92 NSCLC) was greater than 100 µM, the TGI (SF-268 CNS) was greater than 81 µM and the TGI (RXF 393 renal) was 41.3 µM. It also gave a TGI (LOX IMVI melanoma) of 27.6 µM, a TGI (HL-60(TB) leukemia) of 11.9 µM and a TGI (UACC-257 melanoma) of 87.4 µM. For the same molecule, the TGI (UO-31 renal) was 41.4 µM, the TGI (T-47D breast) was 54.3 µM and the TGI (M14 melanoma) was greater than 45.1 µM. It also gave a TGI (SW-620 colon) greater than 25.3 µM, a TGI (A549 NSCLC) greater than 100 µM and a TGI (HCT-116 colon) greater than 36.4 µM. The TGI (SK-MEL-5 melanoma) was 20.4 µM, the TGI (NCI-H23 lung) was 51 µM and the TGI (786-0 renal) was 29.5 µM. The TGI (PC-3 prostate) was 64.3 µM, the TGI (HT29 colon) was 12.2 µM and the TGI (MOLT-4 leukemia) was 26.9 µM. The TGI (NCI-H460 lung) was 25.8 µM, the TGI (MCF7 breast) was greater than 45.2 µM and the TGI (COLO 205 colon) was 12.4 µM. For the same molecule, the TGI (HCT-15 colon) was 13.5 µM, the TGI (SK-OV-3 ovarian) was greater than 100 µM and the TGI (SNB-19 CNS) was greater than 100 µM. For the same molecule, the TGI (CCRF-CEM leukemia) was greater than 74.8 µM, the TGI (SK-MEL-28 melanoma) was greater than 85.6 µM and the TGI (MDA-MB-231 breast) was 6.91 µM. For the same molecule, the TGI (DU-145 prostate) was greater than 95.4 µM, the TGI (BT-549 breast) was 79.3 µM and the TGI (HOP-62 NSCLC) was greater than 93.5 µM. For the same molecule, the TGI (MDA-N) was 2.56 µM, the TGI (NCI-H522 lung) was 3.63 µM and the TGI (HS 578T breast) was 14.6 µM. The TGI (OVCAR-3 ovarian) was 29.6 µM, the TGI (K-562 leukemia) was greater than 22.9 µM and the TGI (RPMI-8226 leukemia) was 6.93 µM. The TGI (SN12C renal) was 22.1 µM, the TGI (NCI/ADR-RES ovarian) was 6.14 µM and the TGI (SNB-75 CNS) was greater than 100 µM. For the same molecule, the TGI (IGROV1 ovarian) was 22.3 µM, the TGI (MDA-MB-435) was greater than 21.3 µM and the TGI (TK-10 renal) was greater than 100 µM. For the same molecule, the TGI (U251 CNS) was greater than 56.8 µM, the TGI (OVCAR-5 ovarian) was greater than 100 µM and the TGI (SK-MEL-2 melanoma) was 15.5 µM. The TGI (OVCAR-8 ovarian) was 55.2 µM, the TGI (UACC-62 melanoma) was greater than 47.2 µM and the TGI (ACHN renal) was greater than 100 µM. For the same molecule, the TGI (KM12 colon) was greater than 37.9 µM, the TGI (EKVX NSCLC) was 27.2 µM and the TGI (NCI-H226 lung) was 14.2 µM. The TGI (SF-539 CNS) was 7.17 µM, the TGI (CAKI-1 renal) was greater than 100 µM and the TGI (A498 renal) was 92.6 µM. It also gave a TGI (SR leukemia) of 5.67 µM.
Cc1cc2c3ccccc3n(C)c2c2c1C(=O)C=CC2=O was tested, and the TGI (HCC-2998 colon) was 39.8 µM, the TGI (OVCAR-4 ovarian) was 18.7 µM and the TGI (LXFL 529 NSCLC) was 8.98 µM. The TGI (MALME-3M melanoma) was 45.7 µM, the TGI (HOP-92 NSCLC) was 25 µM and the TGI (SF-268 CNS) was 39.1 µM. For the same molecule, the TGI (DMS 114 small cell lung) was 13 µM, the TGI (RXF 393 renal) was 20.5 µM and the TGI (DLD-1 colon) was 27 µM. For the same molecule, the TGI (LOX IMVI melanoma) was 32.9 µM, the TGI (HL-60(TB) leukemia) was greater than 68 µM and the TGI (UACC-257 melanoma) was 18.7 µM. The TGI (UO-31 renal) was 46.4 µM, the TGI (T-47D breast) was 19.4 µM and the TGI (M14 melanoma) was 31.9 µM. The TGI (SW-620 colon) was 32.8 µM, the TGI (A549 NSCLC) was greater than 77.8 µM and the TGI (HCT-116 colon) was 39.2 µM. For the same molecule, the TGI (SK-MEL-5 melanoma) was 51.6 µM, the TGI (NCI-H23 lung) was 27.4 µM and the TGI (786-0 renal) was 13.4 µM. The TGI (DMS 273 small cell lung) was 29.1 µM, the TGI (PC-3 prostate) was 21.5 µM and the TGI (HT29 colon) was 20.5 µM. The TGI (MOLT-4 leukemia) was 46.3 µM, the TGI (NCI-H460 lung) was 33.2 µM and the TGI (MCF7 breast) was 17.5 µM. For the same molecule, the TGI (COLO 205 colon) was 33.6 µM, the TGI (HCT-15 colon) was 29.2 µM and the TGI (SK-OV-3 ovarian) was 53.4 µM. The TGI (SNB-19 CNS) was 73 µM, the TGI (SF-295 CNS) was 54.3 µM and the TGI (CCRF-CEM leukemia) was greater than 36 µM. The TGI (SK-MEL-28 melanoma) was 42.7 µM, the TGI (MDA-MB-231 breast) was 32.7 µM and the TGI (DU-145 prostate) was 44.5 µM. For the same molecule, the TGI (BT-549 breast) was 46.4 µM, the TGI (HOP-62 NSCLC) was 49.9 µM and the TGI (MDA-N) was 25.5 µM. For the same molecule, the TGI (NCI-H522 lung) was 31.8 µM, the TGI (HS 578T breast) was 55.2 µM and the TGI (OVCAR-3 ovarian) was 28.3 µM. It also gave a TGI (K-562 leukemia) greater than 74 µM, a TGI (RPMI-8226 leukemia) of 5.47 µM and a TGI (SN12C renal) of 35.9 µM. The TGI (NCI/ADR-RES ovarian) was greater than 100 µM, the TGI (SNB-75 CNS) was 60 µM and the TGI (IGROV1 ovarian) was 36.8 µM. The TGI (MDA-MB-435) was 45.2 µM, the TGI (TK-10 renal) was 31.2 µM and the TGI (U251 CNS) was 32.6 µM. It also gave a TGI (M19-MEL melanoma) of 33.4 µM, a TGI (OVCAR-5 ovarian) of 35.4 µM and a TGI (SK-MEL-2 melanoma) of 37.7 µM. It also gave a TGI (SNB-78 CNS) of 49.1 µM, a TGI (OVCAR-8 ovarian) of 62.7 µM and a TGI (UACC-62 melanoma) of 32.4 µM. The TGI (ACHN renal) was 41.7 µM, the TGI (KM12 colon) was 33.6 µM and the TGI (EKVX NSCLC) was 19 µM. It also gave a TGI (NCI-H226 lung) of 42.5 µM, a TGI (SF-539 CNS) of 41.9 µM and a TGI (CAKI-1 renal) of 28.9 µM. The TGI (A498 renal) was 35.5 µM, the TGI (SR leukemia) was 38.9 µM and the TGI (XF 498 CNS) was 31.3 µM.
